{"source": "patent US11229634B2", "about": "“Methods for treating gastrointestinal disorders using FXR agonists” (Novartis AG, priority 2016, dated 2022)", "key": {"ANIT-induced cholestasis [1]": {"system": "ANIT-induced cholestasis", "test": "Chronic treatment rat ANIT model of cholestasis, serum markers", "assay_type": "in vivo", "settings": "oral dosing 0.01 to 3 mg/kg", "experimental": "Rats were treated with alpha-naphthyl-isothiocyanate (ANIT) (0.1% w/w) in food for 3 days prior to treatment with the compound at the indicated doses or with vehicle control (“Veh”). A non-cholestatic control group was fed standard chow diet without ANIT, and serve as the non-cholestatic control animals (“Control”), After […] days of oral dosing, the indicated analyte was measured in serum. LLQ, lower limit of quantitation. Mean±SEM; n=5."}, "ANIT-induced cholestasis [2]": {"system": "ANIT-induced cholestasis", "test": "PK/PD modeling of effective exposure in rat ANIT chronic treatment model", "assay_type": "in vivo", "settings": "drug concentration producing 80% of maximum effect", "experimental": "Male Wistar rats were treated with ANIT (0.1% ANIT in chow diet) for 2 weeks. […] The serum samples were collected on day 14 for analysis of biomarkers of hepatobiliary injury (including ALT, AST, bilirubin and bile acids). The PK samples (pre-dose, 0.5, 1, 3, 7, 10 and 24 h, n=3/dose group) were taken on day 13 (at steady-state). AUC0-24 h was determined using Phoenix WinNonlin 6.3 software and the average concentrations were calculated from mean of AUC0-24 h at each dose (divided the AUC0-24 h by 24 h). The mean biomarker data were compared to the PK data (average concentration at each dose) for the modeling. The IC80 was determined using the Inhibitory effect Imax model (effect C=0 at Imax, C=infinity at E0) built in Phoenix WinNonlin 6.3 software. […] Therefore, we chose to use a mean of the IC80 for the four biomarkers (total bilirubin, total bile acids, ALT and AST) as the IC80 for efficacy in this model. […]\nThe PK samples (pre-dose, 0.5, 1, 3, 7, 10 and 24 h, n=3/dose group) were taken on day 13 (at steady-state). AUC0-24 h was determined using Phoenix WinNonlin 6.3 software and the average concentrations were calculated from mean of AUC0-24 h at each dose (divided the AUC0-24 h by 24 h). […] The IC80 was determined using the Inhibitory effect Imax model (effect C=0 at Imax, C=infinity at E0) built in Phoenix WinNonlin 6.3 software."}, "[3]": {"test": "Single oral dose plasma pharmacokinetics in healthy subjects", "assay_type": "in vivo", "settings": "dose range 10 μg to 3000 μg, human"}, "[4]": {"test": "Multiple oral dose plasma pharmacokinetics in healthy subjects", "assay_type": "in vivo", "settings": "human"}, "[5]": {"test": "Food effect (high-fat meal vs fasted) on pharmacokinetics", "assay_type": "in vivo", "settings": "human", "experimental": "To avoid variability in drug exposure, it is recommended that throughout the treatment period, patients will be directed to take study drug at home with ˜240 mL (8 ounces) of water in the morning in a fasting state, at least 30 min prior to the first beverage apart from water and 60 min prior to first meal of the day, preferably at the same time of the day."}, "[6]": {"test": "Safety and tolerability in healthy subjects", "assay_type": "in vivo, human", "settings": "repeated daily 100 μg; one ALT>ULN, one ALT>3×ULN, one ALT>5×ULN"}, "[7]": {"test": "Estimation of human efficacious dose from rat efficacious exposure and human PK", "settings": "human, plasma, oral, 6 μg; estimated, molar", "experimental": "The human efficacy dose was calculated based on the efficacious exposure in the rat ANIT-induced disease model. Since the in vitro potency and protein binding between human and rat were similar, the EC80 exposure in human was assumed to be the same as that in rat (3.05 ng*h/mL),"}, "FGF19": {"system": "FGF19", "settings": "single and repeated dosing, human"}, "FXR": {"molecular_target": "T1, FXR (Homo sapiens, UniProt Q96RI1)", "T1 construct": "OCA was tested at doses between 5 mg and 50 mg in PBC subjects or NASH subjects; host or cells: human subjects (PBC, NASH), endogenous receptor", "T1 sequence (Q96RI1 1-486)": "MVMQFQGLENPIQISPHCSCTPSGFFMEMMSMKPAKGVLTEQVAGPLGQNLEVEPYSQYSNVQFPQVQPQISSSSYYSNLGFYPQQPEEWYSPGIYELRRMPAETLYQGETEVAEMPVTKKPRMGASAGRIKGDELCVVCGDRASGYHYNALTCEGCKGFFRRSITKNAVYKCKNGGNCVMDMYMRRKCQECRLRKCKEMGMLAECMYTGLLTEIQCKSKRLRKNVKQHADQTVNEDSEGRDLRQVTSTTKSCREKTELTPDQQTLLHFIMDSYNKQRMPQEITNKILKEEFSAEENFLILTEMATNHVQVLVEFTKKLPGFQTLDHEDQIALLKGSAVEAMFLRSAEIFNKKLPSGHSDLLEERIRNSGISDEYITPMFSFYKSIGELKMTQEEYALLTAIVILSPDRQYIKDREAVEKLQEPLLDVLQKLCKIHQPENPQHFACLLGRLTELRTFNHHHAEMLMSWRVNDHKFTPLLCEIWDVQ", "settings": "clinical studies in PBC or NASH subjects; cited from earlier work"}}, "note": "“Also recorded” adds a separate entry of the source.", "data": [{"smiles": "O=C(O)c1cc(F)c2nc(N3C4CC[C@H]3CC(OCc3c(-c5ccccc5OC(F)(F)F)noc3C3CC3)C4)sc2c1", "note": "(stereo partly drawn) [Compound A, 2-[(1R,3r,5S)-3-({5-cyclopropyl-3-[2-(trifluoromethoxy)phenyl]-1,2-oxazol-4-yl}methoxy)-8-azabicyclo[3.2.1]octan-8-yl]-4-fluoro-1,3-benzothiazole-S-carboxylic acid]", "values": [{"measurement": "dose from which hepatobiliary injury indicators (AST, ALT, bilirubin, bile acids) improved", "setting": "ANIT-induced cholestasis [1]", "result": 0.01, "unit": "mg/kg"}, {"measurement": "IC80, total bilirubin", "setting": "ANIT-induced cholestasis [2]", "result": 0.223, "unit": "ng/mL"}, {"measurement": "dose dependence of mean Cmax and AUCinf", "setting": "[3]", "result": "approximately dose proportional increase"}, {"measurement": "dose dependence of Cmax and AUC (AUCtau/AUCinf), plasma exposure", "setting": "[4]; multiple once daily doses, dose range 10 μg to 100 μg", "result": "approximately dose-proportional increase; also recorded: approximately dose proportional increase"}, {"measurement": "day by which steady-state was reached", "setting": "[4]; once daily oral dosing 10-100 μg, trough levels", "result": "≤ 4", "unit": "days"}, {"measurement": "median Tmax, fasted state", "setting": "[5]; fasted comparator of food effect", "result": 4, "unit": "h"}, {"measurement": "increase of mean AUCinf with high-fat meal compared to the fasted state", "setting": "[5]", "result": "approximately 60%"}, {"measurement": "increase of mean Cmax with high-fat meal compared to the fasted state", "setting": "[5]", "result": "approximately 60%"}, {"measurement": "subjects with elevation of transaminases (ALT and AST)", "setting": "[6]", "result": 3, "unit": "subjects"}, {"measurement": "Cmax", "setting": "[7]", "result": "~0.3", "unit": "nM"}, {"measurement": "FGF19 response to dose", "setting": "FGF19", "result": "dose-dependent increases in FGF19"}]}, {"smiles": "CC[C@H]1[C@@H](O)[C@@H]2[C@H](CC[C@]3(C)[C@@H]([C@H](C)CCC(=O)O)CC[C@@H]23)[C@@]2(C)CC[C@@H](O)C[C@@H]12", "note": "[OCA, 6α-ethyl-chenodeoxycholic acid]", "values": [{"measurement": "side effect associated with treatment", "setting": "FXR", "result": "increased pruritus"}]}]}
